Measured values published in a compilation of properties of binary mixtures (doi:10.1021/acs.jpcb.9b10454).

Test: xn = mol fraction of the nth substance listed
Details: 303.15 K, 100 kPa

## CCn1cc[nH+]c1.O=S(=O)([N-]S(=O)(=O)C(F)(F)F)C(F)(F)F + c1c[nH]cn1
x1 = 0.194
  electrical conductivity: 0.891 S/m
x1 = 0.252
  viscosity: 20.7 mPa·s
x1 = 0.333
  viscosity: 23 mPa·s
x1 = 0.385
  electrical conductivity: 0.616 S/m
x1 = 0.501
  viscosity: 25.3 mPa·s
x1 = 0.597
  electrical conductivity: 0.587 S/m
x1 = 0.601
  viscosity: 25.6 mPa·s
x1 = 0.671
  viscosity: 27.7 mPa·s
x1 = 0.79
  electrical conductivity: 0.556 S/m
x1 = 0.802
  viscosity: 24.3 mPa·s
x1 = 0.889
  electrical conductivity: 0.512 S/m
x1 = 0.901
  viscosity: 26.7 mPa·s
x1 = 1
  viscosity: 38.8 mPa·s
